Assay results published in the supplement of paper PMC10883282.
± gives the standard deviation of the averaged measurements.

Key:
Assay in all cases: relative viability vs DMSO control (72 h) (fraction); higher = more viable cells
SW872 = tested on: SW872
How it was run: (§1)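 Sarcoma cell lines went into 384-well plates at densities chosen to reach 80–90% confluence. After 24 h, each well received 2.5 µl of serially diluted compound, with source plates running from 10 mM to 0.0002 mM, and the plates were kept 72 h at 37 °C, 5% CO2, alongside 0.1% DMSO vehicle and a 5 µM positive control. Relative viability was derived from ATPLite readings as percent growth and averaged over up to triplicate wells. The data were then rescaled so that 1 stands for full and 0 for none.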

RD = tested on: RD
How it was run: as §1

A204 = tested on: A204
How it was run: as §1

VA-ES-BJ = tested on: VA-ES-BJ
How it was run: as §1

SYO-1 = tested on: SYO-1
How it was run: as §1

HS729 = tested on: HS729
How it was run: as §1

KHOS-NP = tested on: KHOS-NP
How it was run: as §1

G401 = tested on: G401
How it was run: as §1

SK-ES-1 = tested on: SK-ES-1
How it was run: as §1

SK-LMS-1 = tested on: SK-LMS-1
How it was run: as §1

MES-SA = tested on: MES-SA
How it was run: as §1

SW684 = tested on: SW684
How it was run: as §1

CCN1CCN(c2ccc(Nc3cc(N(C)C(=O)Nc4c(Cl)c(OC)cc(OC)c4Cl)ncn3)cc2)CC1 [Infigratinib]
Conditions | relative viability
A204, 85 pM | 1.08 ± 0.035
A204, 0.000254 µM | 1.08 ± 0.024
A204, 0.00076 µM | 1.08 ± 0.049
A204, 0.00229 µM | 1.05 ± 0.045
A204, 0.00686 µM | 0.964 ± 0.035
A204, 0.02058 µM | 0.825 ± 0.017
A204, 0.0617 µM | 0.676 ± 0.029
A204, 0.1852 µM | 0.569 ± 0.038
A204, 0.5556 µM | 0.559 ± 0.02
A204, 1.6667 µM | 0.527 ± 0.011
A204, 5 µM | 0.408 ± 0.0067
G401, 85 pM | 1.048 ± 0.0058
G401, 0.000254 µM | 1.039 ± 0.0064
G401, 0.00076 µM | 1.02 ± 0.031
G401, 0.00229 µM | 0.9703 ± 0.0075
G401, 0.00686 µM | 0.952 ± 0.012
G401, 0.02058 µM | 0.8266 ± 0.0059
G401, 0.0617 µM | 0.749 ± 0.051
G401, 0.1852 µM | 0.649 ± 0.025
G401, 0.5556 µM | 0.59 ± 0.025
G401, 1.6667 µM | 0.515 ± 0.034
G401, 5 µM | 0.33 ± 0.034
HS729, 85 pM | 1.01 ± 0.062
HS729, 0.000254 µM | 0.934 ± 0.042
HS729, 0.00076 µM | 0.942 ± 0.035
HS729, 0.00229 µM | 0.913 ± 0.075
HS729, 0.00686 µM | 0.866 ± 0.075
HS729, 0.02058 µM | 0.788 ± 0.012
HS729, 0.0617 µM | 0.69 ± 0.039
HS729, 0.1852 µM | 0.635 ± 0.011
HS729, 0.5556 µM | 0.604 ± 0.019
HS729, 1.6667 µM | 0.526 ± 0.0065
HS729, 5 µM | 0.525 ± 0.018
KHOS-NP, 85 pM | 1.07 ± 0.024
KHOS-NP, 0.000254 µM | 1.12 ± 0.0053
KHOS-NP, 0.00076 µM | 1.09 ± 0.031
KHOS-NP, 0.00229 µM | 1.06 ± 0.02
KHOS-NP, 0.00686 µM | 1.08 ± 0.024
KHOS-NP, 0.02058 µM | 1.085 ± 0.0074
KHOS-NP, 0.0617 µM | 1.08 ± 0.027
KHOS-NP, 0.1852 µM | 1.05 ± 0.07
KHOS-NP, 0.5556 µM | 1.06 ± 0.032
KHOS-NP, 1.6667 µM | 1.08 ± 0.02
KHOS-NP, 5 µM | 1.08 ± 0.027
MES-SA, 85 pM | 0.933 ± 0.027
MES-SA, 0.000254 µM | 0.94 ± 0.022
MES-SA, 0.00076 µM | 0.927 ± 0.024
MES-SA, 0.00229 µM | 0.928 ± 0.0093
MES-SA, 0.00686 µM | 0.929 ± 0.029
MES-SA, 0.02058 µM | 0.869 ± 0.025
MES-SA, 0.0617 µM | 0.846 ± 0.025
MES-SA, 0.1852 µM | 0.733 ± 0.033
MES-SA, 0.5556 µM | 0.696 ± 0.025
MES-SA, 1.6667 µM | 0.556 ± 0.0096
MES-SA, 5 µM | 0.412 ± 0.012
RD, 85 pM | 1.07 ± 0.038
RD, 0.000254 µM | 1.06 ± 0.028
RD, 0.00076 µM | 1.11 ± 0.014
RD, 0.00229 µM | 1.13 ± 0.027
RD, 0.00686 µM | 1.14 ± 0.048
RD, 0.02058 µM | 1.12 ± 0.068
RD, 0.0617 µM | 1.12 ± 0.084
RD, 0.1852 µM | 1.14 ± 0.12
RD, 0.5556 µM | 1.12 ± 0.071
RD, 1.6667 µM | 1.13 ± 0.072
RD, 5 µM | 1.11 ± 0.1
SK-ES-1, 85 pM | 1.03 ± 0.039
SK-ES-1, 0.000254 µM | 1.07 ± 0.04
SK-ES-1, 0.00076 µM | 1 ± 0.03
SK-ES-1, 0.00229 µM | 1.06 ± 0.019
SK-ES-1, 0.00686 µM | 1.03 ± 0.04
SK-ES-1, 0.02058 µM | 1.01 ± 0.027
SK-ES-1, 0.0617 µM | 0.971 ± 0.036
SK-ES-1, 0.1852 µM | 0.929 ± 0.06
SK-ES-1, 0.5556 µM | 0.797 ± 0.0085
SK-ES-1, 1.6667 µM | 0.559 ± 0.0091
SK-ES-1, 5 µM | 0.373 ± 0.0076
SK-LMS-1, 85 pM | 1.12 ± 0.035
SK-LMS-1, 0.000254 µM | 1.11 ± 0.06
SK-LMS-1, 0.00076 µM | 1.08 ± 0.064
SK-LMS-1, 0.00229 µM | 1.13 ± 0.065
SK-LMS-1, 0.00686 µM | 1.1 ± 0.063
SK-LMS-1, 0.02058 µM | 1.06 ± 0.074
SK-LMS-1, 0.0617 µM | 1.08 ± 0.056
SK-LMS-1, 0.1852 µM | 1.11 ± 0.11
SK-LMS-1, 0.5556 µM | 1.08 ± 0.089
SK-LMS-1, 1.6667 µM | 1.04 ± 0.061
SK-LMS-1, 5 µM | 0.952 ± 0.033
SW684, 85 pM | 1.18 ± 0.069
SW684, 0.000254 µM | 1.19 ± 0.066
SW684, 0.00076 µM | 1.19 ± 0.029
SW684, 0.00229 µM | 1.14 ± 0.062
SW684, 0.00686 µM | 1.18 ± 0.043
SW684, 0.02058 µM | 1.18 ± 0.075
SW684, 0.0617 µM | 1.16 ± 0.014
SW684, 0.1852 µM | 1.17 ± 0.055
SW684, 0.5556 µM | 1.15 ± 0.097
SW684, 1.6667 µM | 1.22 ± 0.073
SW684, 5 µM | 1.14 ± 0.019
SW872, 85 pM | 1.09 ± 0.046
SW872, 0.000254 µM | 1.097 ± 0.01
SW872, 0.00076 µM | 1.09 ± 0.028
SW872, 0.00229 µM | 1.06 ± 0.042
SW872, 0.00686 µM | 1.03 ± 0.07
SW872, 0.02058 µM | 1.03 ± 0.019
SW872, 0.0617 µM | 1.06 ± 0.052
SW872, 0.1852 µM | 1.04 ± 0.058
SW872, 0.5556 µM | 1.01 ± 0.043
SW872, 1.6667 µM | 0.882 ± 0.084
SW872, 5 µM | 0.839 ± 0.023
SYO-1, 85 pM | 1.02 ± 0.047
SYO-1, 0.000254 µM | 0.973 ± 0.037
SYO-1, 0.00076 µM | 0.975 ± 0.027
SYO-1, 0.00229 µM | 0.901 ± 0.083
SYO-1, 0.00686 µM | 0.827 ± 0.054
SYO-1, 0.02058 µM | 0.655 ± 0.078
SYO-1, 0.0617 µM | 0.626 ± 0.064
SYO-1, 0.1852 µM | 0.63 ± 0.062
SYO-1, 0.5556 µM | 0.596 ± 0.044
SYO-1, 1.6667 µM | 0.623 ± 0.075
SYO-1, 5 µM | 0.606 ± 0.063
VA-ES-BJ, 85 pM | 1.03 ± 0.012
VA-ES-BJ, 0.000254 µM | 1.048 ± 0.01
VA-ES-BJ, 0.00076 µM | 1.03 ± 0.023
VA-ES-BJ, 0.00229 µM | 1.04 ± 0.058
VA-ES-BJ, 0.00686 µM | 1.04 ± 0.01
VA-ES-BJ, 0.02058 µM | 0.977 ± 0.036
VA-ES-BJ, 0.0617 µM | 1.01 ± 0.022
VA-ES-BJ, 0.1852 µM | 0.982 ± 0.036
VA-ES-BJ, 0.5556 µM | 0.949 ± 0.006
VA-ES-BJ, 1.6667 µM | 0.8949 ± 0.0058
VA-ES-BJ, 5 µM | 0.871 ± 0.018
